Assay results published in patent US10934263B2, “Charged ion channel blockers and methods for use” (Nocion Therapeutics, Inc., priority 2019, dated 2021).

target: T1, NaV1.7 (Homo sapiens, UniProt Q15858); experiment: Automated patch clamp (Qube 384), internal block of NaV1.7 in HEK293 cells; format: cell-based; details: compound in internal solution, read-out: Nav1.7 Intracellular Inhibition (IC50)
T1 construct: expressed in transfected cells; tetracycline-inducible, kept under hygromycin and blasticidin
Description: NaV1.7 was expressed in HEK293 cells upon induction with tetracycline. Cells were cultured in DMEM containing 10% dialyzed Fetal Bovine Serum (VWR, Radnor, Pa.), 1% Glutamax (VWR, Radnor, Pa.), 1% Penicillin-Streptomycin (VWR, Radnor, Pa.), 100 mg/L Hygromycin (Thermo Fisher Scientific, Waltham, Mass. and 5 mg/L Blasticidin (Alfa Aesar, Haverhill, Mass.). Cells were grown and maintained at 37° C. in a humidified environment containing 10% CO2 in air. Cells were detached from the culture flask for passage and harvested using 0.05% Trypsin-EDTA (Thermo Fisher Scientific, Waltham, Mass.). To induce NaV1.7, cells were induced with tetracycline (0.1-1 μg/mL, IBI Scientific, Peosta, Iowa) the day before recording.
Before experiments, cells were washed with DPBS (VWR, Radnor, Pa.), digested with Detachin (VWR Radnor, Pa.) and then triturated 10 times in CHO Serum-Free Media (VWR Radnor, Pa.) to resuspend the cells and to break apart cell aggregates. Cells were counted and the final concentration was set at 2-5 million cells per mL.
The intracellular solution contained the following: 140 mM CsF, 1 mM/5 mM EGTA/CsOH, 10 mM HEPES, 10 mM NaCl, adjusted to pH 7.3 with CsOH, and osmolality to 320 with sucrose. The external solution contained the following: 145 mM NaCl, 4 mM KCl, 1 mM MgCl2, 2 mM CaCl2, 10 mM HEPES, 10 mM Glucose, adjusted to pH 7.4 with CsOH and osmolality to 305 with sucrose. All chemicals are from Sigma-Aldrich, St. Louis, Mo. In order to test the degree of internal block by test compounds, the compounds were dissolved in internal solution at the indicated test concentration. […] In order to test the degree of external block by test compounds the compounds were dissolved in external solution at the indicated test concentration.
Automated Patch Clamps were performed on Qube 384 (Sophion Bioscience, Woburn Mass.) with multihole Qchips at a temperature setting of 22 degrees. The whole cells configuration was formed with default Qube seal and break-in parameter. The membrane potential was held at −100 mV before the voltage protocol began. Two voltage protocols were followed.
Step 1: Cells were held at −100 mV with a depolarized pulse to −20 mV for 10 ms, the interval was set at 5 s. Currents were corrected by default leak subtraction from every pulse. The duration was set at 5 mins.
Step 2: Cells were held at −100 mV with a depolarized pulse to −20 mV for 10 ms. The frequency was 5 Hz. Currents were corrected by leak subtraction calculated before step 2. The duration was set at 4 mins.
After Step 2, the Qchip was removed from the recording chamber. The internal solution was changed with solutions containing test compounds. Qchips were held at −100 mV without pulsing after being replaced in the recording chamber. The total solution switching time was 8 minutes. After the internal solution exchange, Cells were recorded and step 2 for repeated for 10 minutes.
Data analysis was performed by Sophion Analyzer. Cells were filtered with minimum 50 MOhm seal resistance and minimum 5 nA starting current. The rundown of the currents was corrected with control cells (Non-Drug). The remaining was calculated by averaging last 3 points in the end of experiments. The base line was calculated as the average of last 3 points of Step 2. IC50 curves were plotted with DR-plots/Hill function (a dose-response plot with a Hill fit). Data analysis was performed by Sophion Analyzer.

T1 sequence (Q15858 whole entry): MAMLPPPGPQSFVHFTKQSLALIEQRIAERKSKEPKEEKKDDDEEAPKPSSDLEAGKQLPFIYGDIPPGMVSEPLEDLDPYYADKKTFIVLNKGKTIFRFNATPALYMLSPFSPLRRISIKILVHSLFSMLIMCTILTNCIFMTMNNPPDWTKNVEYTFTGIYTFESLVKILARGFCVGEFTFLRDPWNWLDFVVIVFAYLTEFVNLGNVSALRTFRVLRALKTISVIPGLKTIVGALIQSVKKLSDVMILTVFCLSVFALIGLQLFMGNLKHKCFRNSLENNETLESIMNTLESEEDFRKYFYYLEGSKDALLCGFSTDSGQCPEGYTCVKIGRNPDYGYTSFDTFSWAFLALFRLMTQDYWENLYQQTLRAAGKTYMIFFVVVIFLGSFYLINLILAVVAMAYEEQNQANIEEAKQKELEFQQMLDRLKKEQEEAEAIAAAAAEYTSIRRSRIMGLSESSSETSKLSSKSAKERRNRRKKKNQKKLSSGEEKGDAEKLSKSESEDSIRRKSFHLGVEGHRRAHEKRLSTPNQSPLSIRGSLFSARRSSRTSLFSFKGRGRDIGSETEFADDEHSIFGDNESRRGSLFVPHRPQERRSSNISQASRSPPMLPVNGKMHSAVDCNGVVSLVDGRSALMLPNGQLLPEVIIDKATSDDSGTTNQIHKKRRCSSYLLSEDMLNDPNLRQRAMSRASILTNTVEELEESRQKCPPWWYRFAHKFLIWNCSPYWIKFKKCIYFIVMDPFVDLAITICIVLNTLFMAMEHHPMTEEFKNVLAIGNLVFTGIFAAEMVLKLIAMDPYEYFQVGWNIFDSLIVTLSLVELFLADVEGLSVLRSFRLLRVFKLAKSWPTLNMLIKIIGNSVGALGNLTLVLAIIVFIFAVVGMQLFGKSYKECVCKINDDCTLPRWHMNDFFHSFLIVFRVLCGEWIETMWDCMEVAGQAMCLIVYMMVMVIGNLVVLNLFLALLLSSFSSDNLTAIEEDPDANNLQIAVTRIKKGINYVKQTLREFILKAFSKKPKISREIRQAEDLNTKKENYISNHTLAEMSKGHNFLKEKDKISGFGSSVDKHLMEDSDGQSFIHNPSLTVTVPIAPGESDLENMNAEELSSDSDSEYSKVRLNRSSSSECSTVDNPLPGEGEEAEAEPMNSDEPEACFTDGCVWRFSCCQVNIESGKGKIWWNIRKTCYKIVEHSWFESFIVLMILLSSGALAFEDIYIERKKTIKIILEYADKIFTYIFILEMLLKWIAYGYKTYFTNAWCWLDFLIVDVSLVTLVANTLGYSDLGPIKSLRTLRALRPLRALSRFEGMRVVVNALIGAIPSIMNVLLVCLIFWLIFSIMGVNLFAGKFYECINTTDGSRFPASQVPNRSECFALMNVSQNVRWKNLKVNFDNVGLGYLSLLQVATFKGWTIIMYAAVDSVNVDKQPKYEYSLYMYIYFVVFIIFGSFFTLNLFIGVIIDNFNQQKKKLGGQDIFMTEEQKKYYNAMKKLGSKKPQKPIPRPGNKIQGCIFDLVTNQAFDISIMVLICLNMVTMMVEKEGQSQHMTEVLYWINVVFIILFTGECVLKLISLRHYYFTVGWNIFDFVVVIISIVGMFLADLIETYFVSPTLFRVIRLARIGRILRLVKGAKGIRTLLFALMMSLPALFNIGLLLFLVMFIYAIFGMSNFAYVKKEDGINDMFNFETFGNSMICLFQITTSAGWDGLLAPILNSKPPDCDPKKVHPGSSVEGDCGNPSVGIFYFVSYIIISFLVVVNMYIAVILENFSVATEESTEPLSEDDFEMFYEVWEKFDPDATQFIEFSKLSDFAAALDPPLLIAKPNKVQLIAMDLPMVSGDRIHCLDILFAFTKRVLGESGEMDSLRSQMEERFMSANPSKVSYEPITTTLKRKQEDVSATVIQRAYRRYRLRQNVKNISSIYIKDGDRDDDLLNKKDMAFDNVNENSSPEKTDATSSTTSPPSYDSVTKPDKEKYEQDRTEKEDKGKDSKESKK

IC50 [µM]	Compound
1 to 3	Cc1cccc(C)c1NC(=O)C(CC(C)C)[n+]1ccccc1 (stereo not drawn) [Compound 108]
1 to 3	CCn1c(C)cc[n+]1CC(=O)Nc1c(C)cccc1C [Compound 104]
< 1	Cc1cccc(C)c1NC(=O)Cn1ccc[n+]1CC(=O)Nc1c(C)cccc1C [Compound 109]
3 to 10	Cc1cccc(C)c1NC(=O)C[n+]1cccc(S(C)(=O)=O)c1 [Compound 46]
< 1	Cc1cccc(C)c1NC(=O)C[n+]1cccn1C1CCCC1 [Compound 71]
1 to 3	CCCn1c(C)cc[n+]1CC(=O)Nc1c(C)cccc1C [Compound 81]
1 to 3	Cc1cccc(C)c1NC(=O)C(Cc1ccccc1)[n+]1ccccc1 (stereo not drawn) [Compound 106]
1 to 3	CCn1ccc(C)[n+]1CC(=O)Nc1c(C)cccc1C [Compound 95]
< 1	CCOC(=O)CCCn1ccc[n+]1CC(=O)Nc1c(C)cccc1C [Compound 75]
3 to 10	Cc1cccc(C)c1NC(=O)C[n+]1cc(OCc2ccccc2)ccc1Cl [Compound 103]
3 to 10	CCOC(=O)Cn1cc(C)c[n+]1CC(=O)Nc1c(C)cccc1C [Compound 76]
3 to 10	Cc1cccc(C)c1NC(=O)C[n+]1cc2ccccc2n1C [Compound 54]
1 to 3	COc1cc(OC)c[n+](CC(=O)Nc2c(C)cccc2C)c1 [Compound 98]
3 to 10	CCCn1ccc(C)[n+]1CC(=O)Nc1c(C)cccc1C [Compound 101]
< 1	Cc1cccc(C)c1NC(=O)C[n+]1cc(F)cc(-c2ccccc2)c1 [Compound 77]
3 to 10	COC(=O)c1c(F)c[n+](CC(=O)Nc2c(C)cccc2C)cc1F [Compound 89]
< 1	Cc1cccc(C)c1NC(=O)C[n+]1cccc(N2CCCC2)c1 [Compound 51]
< 1	Cc1cccc(C)c1NC(=O)C[n+]1c(C)cc(C)n1C [Compound 94]
< 1	Cc1cccc(C)c1NC(=O)C[n+]1cccc(Cc2ccccc2)c1 [Compound 34]
10 to 30	Cc1cccc(C)c1NC(=O)C[n+]1cccn1CC#N [Compound 69]
1 to 3	Cc1cccc(C)c1NC(=O)C[n+]1cccc(S(=O)(=O)N(C)C)c1 [Compound 47]
1 to 3	CCNc1ccc[n+](CC(=O)Nc2c(C)cccc2C)c1 [Compound 50]
1 to 3	CNC(=O)Cc1ccc[n+](CC(=O)Nc2c(C)cccc2C)c1 [Compound 33]
1 to 3	Cc1cccc(C)c1NC(=O)C[n+]1cccn1CC1CC1 [Compound 73]
1 to 3	Cc1cccc(C)c1NC(=O)C[n+]1cccc(C(F)(F)F)c1 [Compound 66]
3 to 10	CCOC(=O)c1cc(C)[n+](CC(=O)Nc2c(C)cccc2C)n1C [Compound 84]
1 to 3	CCCCn1ccc[n+]1CC(=O)Nc1c(C)cccc1C [Compound 83]
